Experimental data taken from patent US10337071B2, “Oncogene NRF2” (National Cancer Center, priority 2008, dated 2019).

Columns and labels:
Format in all cases: cell-based
[1] = test system: esophageal cancer cell lines with NRF2 gene abnormality (KYSE-50, KYSE-70, KYSE-180); assay: Suppression of proliferation by rapamycin treatment, MTS assay; details: rapamycin 1, 5, 10 nM, 72 hours
Protocol: (§1) Suppression of proliferation by rapamycin treatment was examined for the esophageal cancer cell lines without NRF2 gene abnormality (KYSE-30, KYSE-140, KYSE-170, KYSE-270) and for the cell lines with NRF2 gene abnormality (KYSE-50, KYSE-70, KYSE-180). The 7 esophageal cancer cell lines were seeded onto 96 well plates at 5000 cells/well, and 0, 1, 5, and 10 nM of rapamycin were added. After incubated at 37 degrees C. for 72 hours, viable cells were counted based on the NADH activity (MTS assay, CellTiter 96 Aqueous One Solution Cell Proliferation Assay, Promega).

[2] = test system: head and neck cancer cell lines with NRF2 gene abnormality (HO-1-u-1); assay: as above
Protocol: as §1
(§2) In addition, growth suppression effect of rapamycin treatment to the lung cancer cell lines without NRF2 gene abnormality (SQ-5, QG-56) or with NRF2 gene abnormality (LK-2, EBC-1) and to the head and neck cancer cell lines without NRF2 gene abnormality (HO-1-N-1, HSC2) or with NRF2 gene abnormality (HO-1-u-1) were also examined by similar method for the above esophageal cancer cell lines.

[3] = test system: lung cancer cell lines with NRF2 gene abnormality (LK-2, EBC-1); assay: as above
Protocol: as §1, §2

[4] = test system: KYSE-50 esophageal cancer cell line (NRF2 gene mutation); assay: Growth suppression by dsRNA against NRF2, MTS assay; details: KYSE-50, 72 hours, vs control dsRNA
Protocol: (§3) NRF2 gene expression was suppressed by dsRNA for the esophageal cancer cell lines that have NRF2 gene mutation (KYSE-50 and KYSE-180). Esophagus cancer cell lines were seeded into 96 well plates at 5000 cells/well, and control dsRNA (ON-TARGET plus Non-targeting Pool, Dharmacon, D-001810-10) or dsRNA against NRF2 (NRF2 dsRNA) (5′-[…]-3′ (SEQ ID NO 20) and 5′-p[…]-3′ (SEQ ID NO 21)) were introduced using Lipofectamine (Lipofectamine RNAiMax, Invitrogen). Then they were incubated at 37 degrees C. for 72 hours. Then, the number of viable cells was determined by a MTS assay for the NADH activity (CellTiter 96 Aqueous One Solution Cell Proliferation Assay, Promega).

[5] = test system: KYSE-180 esophageal cancer cell line (NRF2 gene mutation); assay: as above; details: KYSE-180, 72 hours, vs control dsRNA
Protocol: as §3

Row | Compound | cell proliferation, ratio of cell counts, % of the control (0 nM = 100%) [1] | cell proliferation, ratio of cell counts, % of the control (0 nM = 100%) [2] | cell proliferation, ratio of cell counts, % of the control (0 nM = 100%) [3] | suppressive effect on proliferation compared with the control [4] [%] | suppressive effect on proliferation compared with the control [5] [%]
1 | CO[C@H]1C[C@@H]2CC[C@@H](C)[C@@](O)(O2)C(=O)C(=O)N2CCCC[C@H]2C(=O)O[C@H]([C@H](C)C[C@@H]2CC[C@@H](O)[C@H](OC)C2)CC(=O)[C@H](C)/C=C(\C)[C@@H](O)[C@@H](OC)C(=O)[C@H](C)C[C@H](C)/C=C/C=C/C=C/1C [rapamycin] | about 70% | about 70% | 62-70% |  | 
2 | NRF2 dsRNA: dsRNA against NRF2: 5'-UAAAGUGGCUGCUCAGAAUUU-3' (SEQ ID NO 20) and 5'-pAUUCUGAGCAGCCACUUUAUU-3' (SEQ ID NO 21) (second strand carries 5' phosphate, otherwise chemistry not given here, further chemistry not given here) |  |  |  | 26 | 38
